The test deals with T1, AHR (Homo sapiens, UniProt P35869).
T1 construct: other cell line with a DRE-luciferase reporter stably transfected; endogenous in cells; host or cells: HepG2 AhR-Lucia reporter cells
T1 sequence (P35869 11-848): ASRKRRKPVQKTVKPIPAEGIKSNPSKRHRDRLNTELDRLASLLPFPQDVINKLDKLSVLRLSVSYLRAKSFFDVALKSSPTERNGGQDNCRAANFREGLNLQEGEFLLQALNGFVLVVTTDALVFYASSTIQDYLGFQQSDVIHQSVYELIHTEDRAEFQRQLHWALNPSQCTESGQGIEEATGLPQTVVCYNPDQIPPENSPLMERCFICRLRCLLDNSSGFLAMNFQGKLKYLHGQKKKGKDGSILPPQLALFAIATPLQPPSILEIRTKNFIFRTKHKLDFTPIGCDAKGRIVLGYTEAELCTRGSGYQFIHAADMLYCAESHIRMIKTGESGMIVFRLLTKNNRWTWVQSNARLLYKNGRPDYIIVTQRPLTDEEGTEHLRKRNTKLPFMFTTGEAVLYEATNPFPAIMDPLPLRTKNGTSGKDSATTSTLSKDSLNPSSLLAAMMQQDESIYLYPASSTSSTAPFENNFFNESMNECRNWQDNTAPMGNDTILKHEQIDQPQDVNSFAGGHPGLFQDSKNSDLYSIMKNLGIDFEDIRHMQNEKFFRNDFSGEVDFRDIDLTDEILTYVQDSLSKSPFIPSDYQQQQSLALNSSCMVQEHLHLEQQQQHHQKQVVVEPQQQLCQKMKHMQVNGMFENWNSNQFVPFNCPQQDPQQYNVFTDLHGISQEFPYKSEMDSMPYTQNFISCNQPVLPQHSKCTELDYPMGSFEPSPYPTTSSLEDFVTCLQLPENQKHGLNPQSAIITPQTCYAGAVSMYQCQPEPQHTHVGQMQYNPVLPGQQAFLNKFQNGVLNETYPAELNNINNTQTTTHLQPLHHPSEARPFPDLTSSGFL
The test can be described thus: DRE-Luciferase Reporter Assay, HepG2 AhR-Lucia reporter cells. As to conditions: with AHR activating ligand at EC50, read-out: HepG2-Luc IC50. The format is cell-based. The source says: AHR binds to Dioxin Responsive Elements (DRE) upstream of genes that it activates. One measure of AHR activity is activation of a reporter gene, such as luciferase, downstream of one or multiple DRE elements. Luciferase activity will reflect activation and inhibition of AHR in the cells expressing his reporter. 20000 Human HepG2 liver carcinoma—AhR-Lucia reporter cells or Human HT29 colon adenocarcinoma—AhR reporter cells or other cell line with a DRE-luciferase reporter stably transfected were plated in Eagle's Minimal Essential Medium, 10% heat-inactivated FBS, 1× non-essential amino acids Pen-Strep (10,000 U/mL) and Normocin (100 ug/mL) in plates (96-well, 384-well or other plates) and incubated overnight at 37° C. in a CO2 incubator and treated with and without AhR antagonists at a log dilution starting at 100 uM.
After 1 hr that cells were plated an AHR activating ligand, such as TCDD, kynurenine, ITE (2-(1H-indole-3-ylcarbonyl)-4-thiazolecarboxylic methyl ester), VAF347, BNF (beta-naphthoflavone), FICZ (6-formylindolo(3,2-b) carbazole) or other AHR ligands at their specific EC50 concentration, were added to the cells with or without AHR antagonist.
Cells were incubated for 24 or 48 hours or another time point and then, supernatant was analyzed for determination of luciferase activity as a read-out of the AHR activation or inhibition. Luciferase was measured with the commercial kit QUANTI-Luc™ assay solution kit from Invivogen following the manufacturer's instructions.
The level of luciferase with only agonist ligand added was the maximum signal while the luciferase with […] was the minimum signal. IC50 values were determined as the concentration which inhibits half of the luciferase activity.

A value given as a limit tells only on which side of the number the result lay.

`O=c1c2cc(-c3ccc(Cl)cc3)nc(-c3cccnc3)c2ncn1C1COCC1O` (racemic) [Compound 29]: the IC50 was less than 100 nM.

Turning to `O=c1c2cc(-c3ccc(Cl)cc3)nc(-c3cccnc3)c2ncn1C1COCC1O` (racemic) [Compound 32], the IC50 was less than 100 nM.

As to `O=c1c2cc(-c3ccc(Cl)cc3)nc(-c3cccc(F)c3)c2ncn1C[C@H](O)C(F)(F)F` (stereo in doubt) [Compound 41], the IC50 was less than 100 nM.

Turning to `O=c1c2cc(-c3ccc(Cl)cc3)nc(-c3cccc(F)c3)c2ncn1C[C@@H](O)C(F)(F)F` (stereo in doubt) [Compound 42], the IC50 is less than 100 nM.

For `C[C@@H](CO)n1cnc2c(-c3ccc(=O)[nH]c3)nc(-c3ccc(Cl)cc3)cc2c1=O` [Compound 2], the IC50 fell in the range of 100 to 500 nM.

Consider `C[C@@H](CO)n1cnc2c(-c3cccc4c3OCO4)nc(-c3ccc(Cl)cc3)cc2c1=O` [Compound 3], for which the IC50 is 100 to 500 nM.

Regarding `C[C@@H](CO)n1cnc2c(-c3ccncc3)nc(-c3ccc(C(F)(F)F)nc3)cc2c1=O` [Compound 4], the IC50 is 100 to 500 nM.

For `C[C@@H](CO)n1cnc2c(-c3cncc(F)c3)nc(-c3ccc(C(F)(F)F)cc3)cc2c1=O` [Compound 5], the IC50 is less than 100 nM.

Take `O=c1c2cc(-c3cccnc3)nc(-c3cccnc3)c2ncn1CC(O)C(F)(F)F` (stereo not shown) [Compound 10]: the IC50 was 100 to 500 nM.

Take `C[C@@H](CO)n1cnc2c(-c3cccnc3)nc(Cl)cc2c1=O` [Compound 11, (S)-6-chloro-3-(1-hydroxypropan-2-yl)-8-(pyridin-3-yl)pyrido[3,4-d]pyrimidin-4(3H)-one]: the IC50 is greater than 500 nM.

With `O=c1c2cc(-c3ccc(Cl)cc3)nc(-c3cccnc3)c2ncn1CC(O)C(F)(F)F` (stereo not shown) [Compound 13], the IC50 is less than 100 nM.

`O=c1c2cc(-c3ccc(OC(F)(F)F)cc3)nc(-c3cccnc3)c2ncn1CC(O)C(F)(F)F` (stereo not shown) [Compound 14]: the IC50 is less than 100 nM.

As to `Cn1cc(-c2nc(-c3ccc(Cl)cc3)cc3c(=O)n(CC(O)C(F)(F)F)cnc23)cn1` (stereo not shown) [Compound 15], the IC50 was less than 100 nM.

As for `Cn1cc(-c2cc3c(=O)n(CC(C)(C)O)cnc3c(-c3cnn(C)c3)n2)cn1` [Compound 19], the IC50 is greater than 500 nM.

Turning to `C[C@@H](CO)n1cnc2c(-c3cccnc3)nc(-c3cccnc3)cc2c1=O` [Compound 20], the IC50 lay within 100 to 500 nM.

For the molecule `C[C@@H](CO)n1cnc2c(-c3cnn(C)c3)nc(-c3ccccc3)cc2c1=O` [Compound 26], the IC50 was 100 to 500 nM.

With `Cn1cnc2c(-c3cccnc3)nc(-c3ccc(OC(F)(F)F)cc3)cc2c1=O` [Compound 28], the IC50 was less than 100 nM.

For the molecule `CC(C)[C@@H](CO)n1cnc2c(-c3cc(F)cc(F)c3)nc(-c3cc(F)cc(F)c3)cc2c1=O` [Compound 35], the IC50 was less than 100 nM.

Regarding `C[C@@H](n1cnc2c(-c3cccc(F)c3)nc(-c3ccc(Cl)cc3)cc2c1=O)C(C)(C)O` [Compound 39], the IC50 is less than 100 nM.

For `Cc1ccc(-c2cc3c(=O)n([C@@H](C)COCc4ccccc4)cnc3c(-c3cccc(F)c3)n2)cc1` [Compound 40, 3-[(1S)-2-benzyloxy-1-methyl-ethyl]-8-(3-fluorophenyl)-6-(p-tolyl)pyrido[3,4-d]pyrimidin-4-one], the IC50 was greater than 500 nM.

Regarding `COC[C@H](C)n1cnc2c(-c3cccnc3)nc(-c3ccc(C)cc3)cc2c1=O` [Compound 45, (S)-3-(1-methoxypropan-2-yl)-8-(pyridin-3-yl)-6-(p-tolyl)pyrido[3,4-d]pyrimidin-4(3H)-one], the IC50 is less than 100 nM.

`COC(=O)c1ccc(-c2cc3c(=O)n([C@@H](C)CO)cnc3c(-c3cccnc3)n2)cn1` [Compound 52]: the IC50 is greater than 500 nM.

As for `C[C@@H](CO)n1cnc2c(-c3cccnc3)nc(-c3cnsc3)cc2c1=O` [Compound 53], the IC50 lay within 100 to 500 nM.

Take `C[C@@H](CO)n1cnc2c(-c3cnsc3)nc(-c3cnsc3)cc2c1=O` [Compound 56]: the IC50 lay in the range of 100 to 500 nM.

In the case of `CC(C)(O)Cn1cnc2c(-c3cccnc3)nc(-c3cccnc3)cc2c1=O` [Compound 59], the IC50 was greater than 500 nM.

Take `Cc1cc(Cl)ccc1-c1cc2c(=O)n(CC(C)(C)O)cnc2c(-c2cnn(C)c2)n1` [Compound 61]: the IC50 lay within 100 to 500 nM.

In the case of `C[C@@H](CO)n1cnc2c(-c3cn[nH]c3)nc(-c3ccc(C(F)(F)F)nc3)cc2c1=O` [Compound 62], the IC50 is less than 100 nM.

In the case of `Cc1ncccc1-c1nc(-c2ccc(C(F)(F)F)nc2)cc2c(=O)n([C@@H](C)CO)cnc12` [Compound 63], the IC50 lay in the range of 100 to 500 nM.

As for `Cc1ccncc1-c1nc(-c2ccc(C(F)(F)F)nc2)cc2c(=O)n([C@@H](C)CO)cnc12` [Compound 64], the IC50 is greater than 500 nM.

Turning to `Cc1ncsc1-c1cc2c(=O)n([C@@H](C)CO)cnc2c(-c2cccnc2)n1` [Compound 65], the IC50 is 100 to 500 nM.

Consider `CC(C)c1ncc(-c2cc3c(=O)n([C@@H](C)CO)cnc3c(-c3cccnc3)n2)s1` [Compound 67], for which the IC50 is less than 100 nM.

On to `C[C@@H](CO)n1cnc2c(-c3ccc(C(F)(F)F)nc3)nc(-c3ccc(C(F)(F)F)nc3)cc2c1=O` [Compound 69], for which the IC50 lay in the range of 100 to 500 nM.

For `O=c1c2cc(-c3ccc(OC(F)(F)F)cc3)nc(-c3cccnc3)c2ncn1CCO` [Compound 72], the IC50 was less than 100 nM.

Take `C[C@@H](CO)n1cnc2c(-c3ccc(=O)n(C)c3)nc(-c3ccc(Cl)cc3)cc2c1=O` [Compound 73]: the IC50 was greater than 500 nM.

Consider `Cc1cc(C(F)(F)F)ncc1-c1cc2c(=O)n([C@@H](C)CO)cnc2c(-c2cccnc2)n1` [Compound 75], for which the IC50 fell in the range of 100 to 500 nM.

Take `C[C@@H](CO)n1cnc2c(-c3cnn(C)c3)nc(-c3cccnc3)cc2c1=O` [Compound 76]: the IC50 lay in the range of 100 to 500 nM.

`C[C@@H](CO)n1cnc2c(-c3cccnc3)nc(C3=CCCCC3)cc2c1=O` [Compound 77, (S)-6-(Cyclohex-1-en-1-yl)-3-(1-hydroxypropan-2-yl)-8-(pyridin-3-yl)pyrido[3,4-d]pyrimidin-4(3H)-one]: the IC50 was greater than 500 nM.

On to `C[C@@H](CO)n1cnc2c(-c3cncc(F)c3)nc(-c3cncc(F)c3)cc2c1=O` [Compound 78], for which the IC50 lay within 100 to 500 nM.

In the case of `CC(C)(O)Cn1cnc2c(-c3cccnc3)nc(-c3cccnc3C(F)(F)F)cc2c1=O` [Compound 80], the IC50 is greater than 500 nM.

Consider `C[C@@H](CO)n1cnc2c(-c3cccnc3)nc(-c3cncs3)cc2c1=O` [Compound 84], for which the IC50 was greater than 500 nM.

As for `CC(C)(O)Cn1cnc2c(-c3cccnc3)nc(-c3cnc(C(F)(F)F)s3)cc2c1=O` [Compound 87], the IC50 was less than 100 nM.

As for `CC(C)[C@@H](CO)n1cnc2c(-c3cccc(F)c3)nc(-c3ccc(Cl)cc3)cc2c1=O` [Compound 90], the IC50 was less than 100 nM.

`C[C@@H](CO)n1cnc2c(C3=CCCN(C)C3)nc(-c3ccc(C(F)(F)F)nc3)cc2c1=O` [Compound 91]: the IC50 fell in the range of 100 to 500 nM.

Consider `Cc1ncc(-c2cc3c(=O)n([C@@H](C)CO)cnc3c(-c3cccnc3)n2)cn1` [Compound 93], for which the IC50 lay within 100 to 500 nM.

On to `CC(C)(O)Cn1cnc2c(-c3cnn(C(F)(F)F)c3)nc(-c3ccc(C(F)(F)F)nc3)cc2c1=O` [Compound 94], for which the IC50 is less than 100 nM.

In the case of `CC(C)(O)Cn1cnc2c(-c3cccnc3)nc(-c3cnc(C(F)(F)F)nc3)cc2c1=O` [Compound 96], the IC50 is less than 100 nM.

Regarding `C[C@@H](CO)n1cnc2c(-c3cccnc3)nc(-c3ccc(C(=O)O)nc3)cc2c1=O` [Compound 97], the IC50 is greater than 500 nM.

`Cc1ccc(-c2cc3c(=O)n([C@@H](C)CO)cnc3c(-c3cccnc3)n2)cn1` [Compound 98]: the IC50 was less than 100 nM.

Take `C[C@@H](CO)n1cnc2c(-c3cccnc3)nc(N3CCCCC3)cc2c1=O` [Compound 100]: the IC50 is greater than 500 nM.

By IC50 is commonly meant the concentration that inhibits the measured activity by half.

The record behind these values is patent US20230295152A1 (SENDA BIOSCIENCES, INC., priority 2019, published 2023).
